Results taken from patent publication US20250186540A1, “VIPR2 ANTAGONIST PEPTIDE FOR SUPPRESSING CANCER METASTASIS” (ICHIMARU PHARCOS CO., LTD., priority 2022, published 2025).
Positions of bridges follow the written chain, without caps; N, C: chain ends.

How the values were obtained:
[1] = tested on: MCF-7 cells overexpressing VIPR2-EGFP; assay: Cell proliferation test with KS-133; format: cell-based; settings: for Number of cells (mean value): 100 nM KS-133, 100 nM VIP, 2% FBS
Protocol: This effect was confirmed. The cell proliferation test was performed according to NON-PATENT DOCUMENT 3. MCF-7 cells overexpressing VIPR2-EGFP were seeded in a 35 mm culture dish at a density of 1×10^5 cells/dish for 6 hours, and the culture medium was replaced with a fresh medium containing 2% FBS, 100 nM VIP, and 0 nM or 100 nM KS-133 (day 0). Cells were observed under a BZ-X800 fluorescence microscope (Keyence, Kyoto, Japan) and the number of cells was counted every 24 hours for up to 4 days by trypan blue dye staining using a hemacytometer (timecourse experiment).

[2] = tested on: MDA-MB-231 breast cancer cells stably expressing VIPR2-EGFP; assay: Transwell migration test with KS-133; format: cell-based
Protocol: (§1) In addition, the measurement was performed according to the method described above (Asano et al. 2012, Mol. Cell Biol. 32, 3242-3252) using a Boyden chamber. To each well, 600 μL of a serum-free culture solution containing 200 nM VIP was added. Cells (1×10^4 cells) were suspended in 100 μL of a serum-free culture solution and added to the insert. The cells were allowed to migrate for 30 or 48 hours at 37° C. Non-mobile cells adhering to the upper surface of the membrane were removed, and mobile cells adhering to the lower surface were fixed with 4% paraformaldehyde and counted with a fluorescence microscope.
Using the transwell shown in FIG. 7, the effect of KS-133 on migration of MDA-MB-231 breast cancer cells stably expressing VIPR2-EGFP was examined. MDA-MB-231 cells stably expressing VIPR2-EGFP were suspended in serum-free medium containing KS-133 at each of the concentrations of 0 nM to 1000 nM (1×10^4 cells/100 μL). A serum-free medium 6 containing 200 nM VIP and KS-133 at each of the concentrations was added to each well in an amount of 600 μL, and an insert 3 having 3 μm pores 5 was immersed in the well. Then, the suspended cells 1 were added to the insert 3, and incubated under conditions of 37° C. and 5% CO2. After 48 hours, the cells were fixed, cells on the surface of the insert 3 were removed, and then fluorescence of EGFP of cells 2 that had moved to the rear surface in response to induction by VIP was detected with a fluorescence microscope. The number of the cells that had moved to the rear surface of the insert was graphed based on the fluorescence image.
FIG. 8A is a fluorescence micrograph showing migrated cells. FIG. 8B and Table 2 show the number of migrated cells when each concentration of KS-133 was added.

[3] = tested on: phosphorylation of AKT in MDA-MB-231 cells stably expressing VIPR2-EGFP; assay: Phosphorylation of AKT by VIP in the presence and absence of KS-133 (Western blotting); format: cell-based
Protocol: (§2) Western blotting was performed according to a previously described method (Asano et al. 2014, Biol. Open3, 463-474; Asano et al. 2019, Sci. Rep. 9, 12729).
Pathway by VIP in MDA-MB-231 Cells Stably Expressing VIPR2-EGFP>Phosphorylation of AKT by VIP in MDA-MB-231 cells stably expressing VIPR2-EGFP was evaluated in the presence and absence of KS-133.

[4] = tested on: psychiatric disease model mice; settings: NON-PATENT DOCUMENT 2; cited from earlier work
[5] = tested on: phosphorylation of AKT in MCF-7 cells; assay: Phosphorylation of AKT on VIP stimulation (Western blotting); format: cell-based; settings: MCF-7 cells starved 3 hours, 0 nM to 1000 nM VIP for 10 minutes
Protocol: as §2
To investigate whether VIP is involved in cell movement via the PI3K/PI(3,4,5)P3 pathway, phosphorylation of AKT, a downstream signal of the PI3K/PI(3,4,5)P3 pathway in cancer cells, was assessed by Western blotting. […] All experiments were independently performed at least three times, and similar data were obtained.

[6] = tested on: MDA-MB-231 cells stably expressing EGFP or VIPR2-EGFP; assay: WAVE2-rich lamellipodia area after VIP stimulation; format: cell-based; settings: 100 nM VIP; 30 minutes
Protocol: MDA-MB-231 cells (2×10^5 cells) stably expressing EGFP or VIPR2-EGFP were seeded on collagen-coated cover glass and incubated under conditions of 37° C. and 5% CO2. After 24 hours, the cells were washed with serum-free medium, and fresh serum-free medium was added to incubate the cells (under conditions of 37° C. and 5% CO2). After 3 hours, the medium was replaced with serum-free medium containing 100 nM VIP, and incubation for 30 minutes was performed. The cells were fixed with 4% paraformaldehyde, and immunostained using an anti-WAVE2 antibody. The surface area of a WAVE2-rich region immediately below the cell membrane was measured from a fluorescently-stained image of the same and graphed.
Data are shown as mean±SD. **: p<0.01, ***: p<0.001, between indicated groups (Kruskal-Wallis test and Dunn's multiple comparison test). “n.s.” indicates not statistically significant. […] The MDA-MB-231 cells stably expressing VIPR2-EGFP had more pronounced area expansion of lamellipodia compared to the control MDA-MB-231 cells expressing EGFP.

[7] = tested on: MDA-MB-231 cells stably expressing EGFP or VIPR2-EGFP; assay: Transwell chamber assay of VIP-induced movement; format: cell-based; settings: 200 nM VIP; 30 hours
Protocol: as §1
Cells were suspended in serum-free media (1×10^4 cells/[…]). A serum-free medium 6 containing 200 nM VIP was added to each well in an amount of 600 μL, and an insert 3 having 3 μm pores 5 was immersed in the well. […] After 30 hours, cells were fixed, cells on the surface of the insert 3 were removed, and then fluorescence of EGFP of cells 2 that had moved to the rear surface in response to VIP was detected with a fluorescence microscope. The number of the cells that had moved to the rear surface of the insert was graphed based on the fluorescence image. […] VIP (200 nM) was added to the well, the cells were added to the insert and incubated at 37° C. for 30 hours, and cells that had moved to the rear side of the insert were quantified and shown graphically.

Substance	Number of cells (mean value) ([1]; Day 0)	Number of cells (mean value) ([1]; Day 1)	Number of cells (mean value) ([1]; Day 2)	Number of cells (mean value) ([1]; Day 3)	Number of cells (mean value) ([1]; Day 4)	cell proliferation ([1]; MCF-7 cells overexpressing VIPR2, addition of KS-133)	VIP-induced cell migration ([2]; 200 nM VIP, KS-133 0 nM to 1000 nM, 48 hours)	Mean cell count (migrated cells) ([2]; KS-133 30 nM, 200 nM VIP, 48 hours) [Cells/mm^2]	Mean cell count (migrated cells) ([2]; KS-133 100 nM, 200 nM VIP, 48 hours) [Cells/mm^2]	Mean cell count (migrated cells) ([2]; KS-133 300 nM, 200 nM VIP, 48 hours) [Cells/mm^2]	Mean cell count (migrated cells) ([2]; KS-133 1000 nM, 200 nM VIP, 48 hours) [Cells/mm^2]	KS-133 concentration showing a significant difference in migration compared to the absence of KS-133 ([2]; Kruskal-Wallis test and Dunn's multiple comparison test) [nM]	expression of AKT [3]	phosphorylation of AKT induced by VIP ([3]; presence vs absence of KS-133)	cognitive decline [4]	phosphorylation of AKT [5]	WAVE2-rich area of lamellipodia [6]	number of cells that had moved to the back side of the insert [7]
Ac-c[Cys^1-Pro^2-Pro^3-Tyr^4-Leu^5-Pro^6-c(Lys^7-Tyr^8-Leu^9-Cys^10]-Asp^11)-Leu^12-Ile^13-NH2 (Ac-CPPYLPKYLCDLI-NH2; disulfide 1-10; lactam 7-11; SMILES CC[C@H](C)[C@H](NC(=O)[C@H](CC(C)C)NC(=O)[C@@H]1CC(=O)NCCCC[C@@H]2NC(=O)[C@@H]3CCCN3C(=O)[C@H](CC(C)C)NC(=O)[C@H](Cc3ccc(O)cc3)NC(=O)[C@@H]3CCCN3C(=O)[C@@H]3CCCN3C(=O)[C@@H](NC(C)=O)CSSC[C@H](NC(=O)[C@H](CC(C)C)NC(=O)[C@H](Cc3ccc(O)cc3)NC2=O)C(=O)N1)C(N)=O) [KS-133]	1.0 × 10^5	0.85 × 10^5	0.65 × 10^5	0.45 × 10^5	0.2 × 10^5	significantly suppressed from Day 2 of culture or later	suppressed	4.35	2.08	1.39	0.78	≥ 100	did not affect the expression of AKT	strongly suppressed phosphorylation of AKT induced by VIP in an addition concentration-dependent manner	suppress cognitive decline	–	–	–
Vasoactive intestinal peptide [VIP]	–	–	–	–	–	–	–	–	–	–	–	–	–	–	–	phosphorylated in a VIP addition concentration-dependent manner	expanded the WAVE2-rich area of lamellipodia	increased
